Measured values as given in the NIST ThermoML archive (doi:10.1016/j.jct.2016.02.014).
Numbers after ± are expanded uncertainties.

Experiment: xn = mol fraction of the nth substance listed
Conditions: 100 kPa, Liquid; for viscosity: Capillary tube (Ostwald / Ubbelohde) method; for mass density: Vibrating tube method

O=C1CCCO1 [γ-butyrolactone] + CCCCn1cc[n+](C)c1.N#CN=C=[N-]
Conditions	mass density [kg/m3]	viscosity [mPa·s]
273.15 K, x2 = 0	1149.15 ± 9.2	2.69 ± 0.06
273.15 K, x2 = 0.0504	1142.33 ± 9.1	3.61 ± 0.08
273.15 K, x2 = 0.1002	1136.31 ± 9.1	4.65 ± 0.11
273.15 K, x2 = 0.2002	1124.63 ± 9	7.69 ± 0.17
273.15 K, x2 = 0.2984	1114.82 ± 8.9	11.85 ± 0.27
273.15 K, x2 = 0.4005	1106.01 ± 8.9	17.81 ± 0.4
273.15 K, x2 = 0.4954	1099.09 ± 8.8	24.81 ± 0.56
273.15 K, x2 = 0.6957	1087.48 ± 8.7	45.75 ± 1
273.15 K, x2 = 0.8871	1079.17 ± 8.7	74.11 ± 1.7
283.15 K, x2 = 0	1139.31 ± 9.1	2.21 ± 0.05
283.15 K, x2 = 0.0504	1133.08 ± 9.1	2.94 ± 0.07
283.15 K, x2 = 0.1002	1127.5 ± 9	3.73 ± 0.09
283.15 K, x2 = 0.2002	1116.53 ± 8.9	5.87 ± 0.13
283.15 K, x2 = 0.2984	1107.21 ± 8.9	8.75 ± 0.19
283.15 K, x2 = 0.4005	1098.76 ± 8.8	12.54 ± 0.28
283.15 K, x2 = 0.4954	1092.29 ± 8.8	16.9 ± 0.38
283.15 K, x2 = 0.6957	1081.06 ± 8.7	29.14 ± 0.65
283.15 K, x2 = 0.8871	1072.88 ± 8.6	44.36 ± 1
293.15 K, x2 = 0	1129.49 ± 9	1.86 ± 0.04
293.15 K, x2 = 0.0504	1123.86 ± 9	2.42 ± 0.05
293.15 K, x2 = 0.1002	1118.73 ± 9	2.97 ± 0.07
293.15 K, x2 = 0.2002	1108.38 ± 8.9	4.53 ± 0.1
293.15 K, x2 = 0.2984	1099.49 ± 8.8	6.68 ± 0.15
293.15 K, x2 = 0.4005	1091.44 ± 8.7	9.31 ± 0.21
293.15 K, x2 = 0.4954	1085.13 ± 8.7	12.22 ± 0.27
293.15 K, x2 = 0.6957	1074.27 ± 8.6	19.95 ± 0.45
293.15 K, x2 = 0.8871	1066.34 ± 8.6	28.87 ± 0.65
298.15 K, x2 = 0	1124.59 ± 9	1.71 ± 0.04
298.15 K, x2 = 0.0504	1119.26 ± 9	2.22 ± 0.05
298.15 K, x2 = 0.1002	1114.35 ± 8.9	2.77 ± 0.06
298.15 K, x2 = 0.2002	1104.32 ± 8.8	4.16 ± 0.09
298.15 K, x2 = 0.2984	1095.65 ± 8.8	5.92 ± 0.13
298.15 K, x2 = 0.4005	1087.78 ± 8.7	8.18 ± 0.18
298.15 K, x2 = 0.4954	1081.58 ± 8.7	10.57 ± 0.23
298.15 K, x2 = 0.6957	1070.9 ± 8.6	16.81 ± 0.38
298.15 K, x2 = 0.8871	1063.09 ± 8.5	23.85 ± 0.54
303.15 K, x2 = 0	1119.68 ± 9	1.59 ± 0.03
303.15 K, x2 = 0.0504	1114.67 ± 8.9	2.03 ± 0.05
303.15 K, x2 = 0.1002	1109.99 ± 8.9	2.5 ± 0.06
303.15 K, x2 = 0.2002	1100.28 ± 8.8	3.81 ± 0.08
303.15 K, x2 = 0.2984	1091.83 ± 8.7	5.27 ± 0.12
303.15 K, x2 = 0.4005	1084.14 ± 8.7	7.14 ± 0.16
303.15 K, x2 = 0.4954	1078.05 ± 8.6	9.15 ± 0.2
303.15 K, x2 = 0.6957	1067.55 ± 8.6	14.23 ± 0.32
303.15 K, x2 = 0.8871	1059.86 ± 8.5	19.86 ± 0.45
313.15 K, x2 = 0	1109.87 ± 8.9	1.37 ± 0.03
313.15 K, x2 = 0.0504	1105.49 ± 8.8	1.74 ± 0.04
313.15 K, x2 = 0.1002	1101.27 ± 8.8	2.14 ± 0.05
313.15 K, x2 = 0.2002	1092.23 ± 8.7	3.14 ± 0.07
313.15 K, x2 = 0.2984	1084.22 ± 8.7	4.27 ± 0.09
313.15 K, x2 = 0.4005	1076.84 ± 8.6	5.64 ± 0.12
313.15 K, x2 = 0.4954	1071.02 ± 8.6	7.11 ± 0.16
313.15 K, x2 = 0.6957	1060.89 ± 8.5	10.69 ± 0.24
313.15 K, x2 = 0.8871	1053.44 ± 8.5	14.53 ± 0.33
323.15 K, x2 = 0	1100.05 ± 8.8	1.2 ± 0.03
323.15 K, x2 = 0.0504	1096.31 ± 8.8	1.52 ± 0.03
323.15 K, x2 = 0.1002	1092.59 ± 8.7	1.83 ± 0.04
323.15 K, x2 = 0.2002	1084.21 ± 8.7	2.63 ± 0.06
323.15 K, x2 = 0.2984	1076.75 ± 8.6	3.56 ± 0.08
323.15 K, x2 = 0.4005	1069.73 ± 8.6	4.6 ± 0.1
323.15 K, x2 = 0.4954	1064.05 ± 8.5	5.7 ± 0.13
323.15 K, x2 = 0.6957	1054.29 ± 8.5	8.38 ± 0.19
323.15 K, x2 = 0.8871	1047.09 ± 8.4	11.03 ± 0.25
